Activity calls are given as the source filed them.
Tests used:
[1] = cytotoxicity in HEK-293T cells, dose response, cytotoxicity control for BCR NF-kB inhibitor project, luminescence, B-cell screen hits (AID 489021); type: functional, cell-based;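 note: HEK-293T cells carrying an NF-kB luciferase reporter; cells exposed to compound for about 14 hours before viability readout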
[2] = PAX2 cell-based inhibition, dose response, selectivity assay for PAX8 inhibitor project, plate reader, dry powder samples (AID 743048); type: functional;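 note: HEK293 cells carrying a WT1 promoter luciferase reporter driven by expressed Pax2; potency is for inhibition of Pax2 driven reporter signal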
[3] = cytotoxicity in OVCAR4 cells, dose response, cytotoxicity control for PAX8 inhibitor project, cell-based, plate reader, dry powder, SA11 (AID 743150); type: functional; conditions: OVCAR-4
[4] = PAX5 activity inhibitors, dose response, selectivity assay for PAX8 inhibitor project, cell-based, plate reader, dry powder samples (AID 743047); type: functional;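 note: HEK293 cells carrying a Pax5 driven CD19 promoter luciferase reporter; potency of inhibitors that lower reporter luminescence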
[5] = biological target: Paired box protein Pax-8 (Homo sapiens, UniProt Q06710); assay: inhibitors of PAX8-driven TPO luciferase reporter, dose response, RMG-I cells, cherry-pick (AID 687027); type: functional, cell-based;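 note: luciferase reporter driven by Pax8 target thyroperoxidase promoter measured by SteadyGlo luminescence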
[6] = cytotoxicity dependent on PAX8, dose response, cell-based, plate reader, dry powder (AID 743049); type: functional
[7] = IGROV1 ovarian cancer cell cytotoxicity, dose response, PAX8 inhibitor project, plate reader, dry powder samples (AID 743043); type: functional, cell-based; conditions: IGROV-1
[8] = cytotoxicity in COV434 cells, dose response, cytotoxicity control for PAX8 inhibitor project, cell-based, plate reader, dry powder, SA7 (AID 743145); type: functional
[9] = NIH:OVCAR-3 ovarian cancer cell cytotoxicity, dose response, PAX8 inhibitor project, plate reader, dry powder samples (AID 743044); type: functional, cell-based
[10] = A2780 ovarian cancer cell cytotoxicity, dose response, cytotoxicity control, plate reader, dry powder samples (AID 743046); type: functional, cell-based
[11] = IOSE-T80 ovarian epithelial cell cytotoxicity, dose response, cytotoxicity control for PAX8 inhibitor project, plate reader, dry powder samples (AID 743045); type: functional, cell-based
[12] = cytotoxicity in OVCAR8 ovarian cancer cells, dose response, PAX8 project, cell-based, plate reader, dry powder samples (AID 743197); type: functional; conditions: OVCAR-8
[13] = biological target: NAD-dependent protein deacylase sirtuin-5, mitochondrial (Homo sapiens, UniProt Q9NXA8); assay: SIRT5 deacylase inhibitors, dose response, biochemical, fluorescence imaging, cherry-pick, set 6 (AID 720597)
[14] = A549 cell cytotoxicity, dose response, cytotoxicity control, 24 h, CellTiter-Glo luminescence, cherry-picks (AID 1053115); type: functional, cell-based; conditions: A549, 24 h
[15] = SK-MEL-5 parental line viability, dose response, MITF inhibitor project, cell-based, CellTiter-Glo, dry powder, set 6 (AID 624429); type: functional
[16] = A375 melanoma cell cytotoxicity, dose response, counter-screen for MITF inhibitor project, CellTiter-Glo luminescence, dry powder, set 6 (AID 624488); type: functional, cell-based; conditions: A-375
[17] = MITF Measured in Cell-Based System Using Plate Reader - 2084-01_Inhibitor_Dose_DryPowder_Activity_Set7.; type: functional
[18] = MITF Orthogonal Assay: MALME3 CTG Assay Measured in Cell-Based System Using Plate Reader - 2084-04_Inhibitor_Dose_DryPowder_Activity_Set6.; type: functional; conditions: MALME-3
[19] = MITF Orthogonal Assay: SK-MEL-5 CTG Assay Measured in Cell-Based System Using Plate Reader - 2084-02_Inhibitor_Dose_DryPowder_Activity_Set5.; type: functional
[20] = A375 melanoma cell cytotoxicity, dose response, counter-screen for MITF inhibitor project, CellTiter-Glo luminescence, dry powder, set 7 (AID 624490); type: functional, cell-based; conditions: A-375
[21] = SK-MEL-5 parental cell viability reduction, dose response, orthogonal assay for MITF inhibitor project, CellTiter-Glo luminescence, dry powder, set 8 (AID 651586); type: functional, cell-based
[22] = TRPM1 promoter luciferase reporter signal decrease, dose response, MITF inhibitor project, cell-based, SK-MEL-5, dry powder, set 9 (AID 651588); type: functional
[23] = A375 melanoma cell viability loss, dose response, counter-screen for MITF inhibitor project, CellTiter-Glo luminescence, dry powder, set 4 (AID 624364); type: functional, cell-based; conditions: A-375;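 note: A375 melanoma cells are MITF independent so this is a counter screen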
[24] = MITF Measured in Cell-Based System Using Plate Reader - 2084-01_Inhibitor_Dose_DryPowder_Activity_Set6.; type: functional
[25] = MALME3 melanoma cell viability reduction, dose response, orthogonal assay for MITF inhibitor project, CellTiter-Glo luminescence, dry powder, set 5 (AID 651584); type: functional, cell-based; conditions: MALME-3
[26] = biological target: Glutathione-S-transferase (Schistosoma japonicum, UniProt Q26513); assay: biotin-GST/anti-GST TR-FRET signal inhibitors, dose response, artefact control for Vif-APOBEC3G degradation inhibitor project, biochemical (AID 1117362); type: functional
Chain of Glutathione-S-transferase (Q26513 whole entry): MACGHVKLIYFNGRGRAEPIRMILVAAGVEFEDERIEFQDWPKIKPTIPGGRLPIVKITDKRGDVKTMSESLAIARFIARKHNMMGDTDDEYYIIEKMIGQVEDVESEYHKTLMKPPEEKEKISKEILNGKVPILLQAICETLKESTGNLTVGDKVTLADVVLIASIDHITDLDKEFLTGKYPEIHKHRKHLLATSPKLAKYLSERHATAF

Chain of Paired box protein Pax-8 (Q06710 whole entry): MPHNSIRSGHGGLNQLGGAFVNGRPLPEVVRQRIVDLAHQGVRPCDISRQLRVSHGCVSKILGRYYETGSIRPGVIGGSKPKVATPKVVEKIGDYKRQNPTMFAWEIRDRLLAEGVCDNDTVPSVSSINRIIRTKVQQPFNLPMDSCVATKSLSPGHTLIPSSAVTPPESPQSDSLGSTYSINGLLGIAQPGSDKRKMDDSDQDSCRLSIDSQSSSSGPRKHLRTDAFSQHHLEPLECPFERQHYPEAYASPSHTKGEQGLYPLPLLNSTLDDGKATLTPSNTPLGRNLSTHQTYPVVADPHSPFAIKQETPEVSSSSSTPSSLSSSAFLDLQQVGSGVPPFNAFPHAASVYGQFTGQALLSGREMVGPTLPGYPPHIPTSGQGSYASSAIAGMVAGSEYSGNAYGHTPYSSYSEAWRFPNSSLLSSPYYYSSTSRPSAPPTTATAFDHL
Chain of NAD-dependent protein deacylase sirtuin-5, mitochondrial (Q9NXA8 whole entry): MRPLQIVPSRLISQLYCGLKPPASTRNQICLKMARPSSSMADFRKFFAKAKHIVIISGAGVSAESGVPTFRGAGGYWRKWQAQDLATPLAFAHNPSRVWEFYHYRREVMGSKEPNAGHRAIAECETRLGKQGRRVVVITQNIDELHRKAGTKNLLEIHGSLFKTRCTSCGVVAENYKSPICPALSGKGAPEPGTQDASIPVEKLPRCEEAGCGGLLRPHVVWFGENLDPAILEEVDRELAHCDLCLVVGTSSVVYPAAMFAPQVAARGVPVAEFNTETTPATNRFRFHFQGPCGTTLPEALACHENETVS

With `CCN(CC(=O)Nc1c(F)cccc1F)C(=O)c1cc(S(=O)(=O)N(C)C)ccc1N1CCCC1` the IC50 [1] was > 80 µM (inactive), the AC50 [2] was 88.8 µM (active) and the AC50 [3] was 58.9 µM (active). For the same compound, the AC50 [4] was 73.1 µM (active), the AC50 [5] was 7.72 µM (active) and the AC50 [6] was 39.3 µM (active). For the same compound, the AC50 [7] was 14.2 µM (active) and the AC50 [8] was 29.4 µM (active).

With `Cc1ccc(S(=O)(=O)Nc2ccc3c(c2)C(=O)N([C@H](C)CO)C[C@H](C)[C@@H](CN(C)S(=O)(=O)c2ccc(C)cc2)OCCCC[C@H](C)O3)cc1` the AC50 [9] was 18.5 µM (active), the AC50 [10] was 34.5 µM (active) and the AC50 [5] was 5.76 µM (active). For the same compound, the AC50 [11] was 23.6 µM (active), the AC50 [12] was > 70 µM (inactive) and the AC50 [7] was 44.2 µM (active).

In the case of `O=C(C[C@H]1C[C@H]2c3cc(NC(=O)C4CCC4)ccc3O[C@H]2[C@H](CO)O1)NCCN1CCCCC1`, the AC50 [13] is reported as > 30 µM (inactive).

With `OC[C@@H]1Nc2ccc(-c3ccccc3)cc2[C@H]2[C@@H]1CCN2Cc1ccc(F)cc1` the AC50 [14] was 47.6 µM (active).

For `NC1=C(NS(=O)(=O)c2ccccc2)C(=O)c2ccccc2C1=O`, the AC50 [15] was 16.1 µM (active), the AC50 [16] was 54.6 µM (active) and the AC50 [17] was 4.7 µM (active). The AC50 [18] was 22.6 µM (active), the AC50 [19] was 16.1 µM (active) and the AC50 [20] was > 70 µM (inactive). The AC50 [21] was 17.5 µM (active), the AC50 [22] was 15.8 µM (active) and the AC50 [23] was > 70 µM (inactive). For the same compound, the AC50 [24] was 7 µM (active) and the AC50 [25] was 22.6 µM (active).

With `COC(=O)/C(=N/Nc1ccccc1C)N1CCCc2ccccc21` the IC50 [26] was 1.9 µM (active).
